Laboratory results from patent US10758478B2, “Active agent loaded uniform, rigid, spherical, nanoporous calcium phosphate particles and methods of making and using the same” (Laboratory Skin Care, Inc., priority 2008, dated 2020).

Columns and labels:
[1] = Binding capacity to hydroxyapatite; assay type: physicochemical
[2] = Solubility of salicylic acid (water, ethanol and PEG); assay type: physicochemical

- binding capacity to hydroxyapatite [1]: ≤ 1 mg
- solubility in ethanol and PEG (poly ethylene glycol) ([2]; ethanol and PEG): up to 30%
- solubility in water ([2]; water): water insoluble
SMILES: O=C(O)c1ccccc1O [Salicylic acid, 2-Hydroxybenzoic acid]
